Experimental data reported in ChEMBL document CHEMBL1201862, “PubChem BioAssay data set” (2004).
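Step 1: Grow cells in 96-well plates. Step 2: Expose to compound for 48 hours at 5 concentrations. Step 3: Interpolate endpoints linearly; if unreached, use highest concentration. At the GI50, growth is halved.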 Calls of active or inactive are those of the source. Rule as the data show it: active = GI50 up to about 1.1 µM and inactive = higher.

What was measured:
Assay in all cases: NCI tumour cell line growth inhibition, 48 h
[1] = tested on: PC-3
[2] = tested on: EKVX
[3] = tested on: DU-145
[4] = tested on: RPMI-8226
[5] = tested on: TK-10
[6] = tested on: NCI-H522
[7] = tested on: A498
[8] = tested on: BT-549
[9] = tested on: SF-539
[10] = tested on: OVCAR-4
[11] = tested on: OVCAR-3
[12] = tested on: M14
[13] = tested on: UO-31
[14] = tested on: HCT-116
[15] = tested on: MDA-N
[16] = tested on: HL-60
[17] = tested on: MOLT-4
[18] = tested on: SR
[19] = tested on: UACC-62
[20] = tested on: UACC-257

SMILES | GI50 [1] | GI50 [2] | GI50 [3] | GI50 [4] | GI50 [5] | GI50 [6] | GI50 [7] | GI50 [8] | GI50 [9] | GI50 [10] | GI50 [11] | GI50 [12] | GI50 [13] | GI50 [14] | GI50 [15] | GI50 [16] | GI50 [17] | GI50 [18] | GI50 [19] | GI50 [20]
CN(C)C=O.O=C(Nc1nnn[nH]1)c1nc(O)cc(-c2ccccc2)n1 | > 100 µM (inactive) | > 100 µM (inactive) | > 100 µM (inactive) | > 100 µM (inactive) | > 100 µM (inactive) | > 100 µM (inactive) | > 100 µM (inactive) | > 100 µM (inactive) | > 100 µM (inactive) | > 100 µM (inactive) | > 100 µM (inactive) | > 100 µM (inactive) | > 100 µM (inactive) | > 100 µM (inactive) | > 100 µM (inactive) | > 100 µM (inactive) | > 100 µM (inactive) | > 100 µM (inactive) | > 100 µM (inactive) | > 100 µM (inactive)
CC1=C/C(=C(/c2ccc(O)c(C)c2)c2ccccc2C(=O)O)C=CC1=O | 19.6 µM (inactive) | 19.4 µM (inactive) | 18.1 µM (inactive) | 20 µM (inactive) | 17.3 µM (inactive) | 21.5 µM (inactive) | 18.7 µM (inactive) | 21.1 µM (inactive) | 19 µM (inactive) | 18.1 µM (inactive) | 18 µM (inactive) | 18.3 µM (inactive) | 18.8 µM (inactive) | 18.2 µM (inactive) | 18.7 µM (inactive) | 20.8 µM (inactive) | 21.9 µM (inactive) | 20.7 µM (inactive) | 17.2 µM (inactive) | 18.7 µM (inactive)
Cn1c(CC(O)c2nc3ccccc3n2C)nc2ccccc21 (stereo not given) | > 29.2 µM (inactive) | > 100 µM (inactive) | > 14.6 µM (inactive) | > 11.5 µM (inactive) | > 25.1 µM (inactive) | > 6.1 µM (inactive) | > 32.9 µM (inactive) | > 34.4 µM (inactive) | > 39.1 µM (inactive) | > 23.3 µM (inactive) | > 13.1 µM (inactive) | > 29.2 µM (inactive) | > 6.37 µM (inactive) | > 23.7 µM (inactive) | > 100 µM (inactive) | 0.413 µM (active) | > 13.7 µM (inactive) | > 100 µM (inactive) | > 34.8 µM (inactive) | > 19.1 µM (inactive)
CCCCC1C=Cn2c(=O)oc3c(OC(C)C)c(C)c(O)c1c32 (stereo not given) | 2.43 µM (inactive) | 2.48 µM (inactive) | 0.652 µM (active) | 1.42 µM (inactive) | 5.52 µM (inactive) | 1.24 µM (inactive) | 0.0423 µM (active) | 2.17 µM (inactive) | 2.49 µM (inactive) | 0.601 µM (active) | 2.75 µM (inactive) | 1.19 µM (inactive) | 0.71 µM (active) | 0.977 µM (active) | 2.37 µM (inactive) | 0.46 µM (active) | 0.824 µM (active) | 0.548 µM (active) | 0.929 µM (active) | 2.44 µM (inactive)
O=C1C=CC(=O)c2c1ccc1c3ccccc3n(Cc3cccc([N+](=O)[O-])c3)c21 | 30.1 µM (inactive) | > 100 µM (inactive) | > 100 µM (inactive) | 17.8 µM (inactive) | 20 µM (inactive) | 18.8 µM (inactive) | 58.3 µM (inactive) | 40.1 µM (inactive) | > 54 µM (inactive) | 23.8 µM (inactive) | 17.1 µM (inactive) | 27.7 µM (inactive) | 50 µM (inactive) | 24.5 µM (inactive) | 16 µM (inactive) | 6.9 µM (inactive) | 8.65 µM (inactive) | 12.8 µM (inactive) | > 46 µM (inactive) | 23 µM (inactive)
O=C1C=CC(=O)c2cc(Sc3ccccc3)c(=O)ccc21 | 18.2 µM (inactive) | 18.3 µM (inactive) | 17.4 µM (inactive) | 4.46 µM (inactive) | 17.1 µM (inactive) | 2.32 µM (inactive) | 16.2 µM (inactive) | 17.9 µM (inactive) | 19.8 µM (inactive) | 11 µM (inactive) | 16.9 µM (inactive) | 17.8 µM (inactive) | 11.7 µM (inactive) | 18 µM (inactive) | 16.9 µM (inactive) | 0.877 µM (active) | 2.24 µM (inactive) | 1.58 µM (inactive) | 15.5 µM (inactive) | 18 µM (inactive)
CCOC(=O)/C=C(/C(=O)OCC)n1ccc(=O)n(/C(=C/C(=O)OCC)C(=O)OCC)c1=O | 15 µM (inactive) | 11.4 µM (inactive) | 18.6 µM (inactive) | 2.7 µM (inactive) | 7.08 µM (inactive) | 1.61 µM (inactive) | 21.8 µM (inactive) | 15.3 µM (inactive) | 18.1 µM (inactive) | 9.93 µM (inactive) | 6.19 µM (inactive) | 4.98 µM (inactive) | 15.5 µM (inactive) | 2.39 µM (inactive) | 13.5 µM (inactive) | 0.859 µM (active) | 1.76 µM (inactive) | 5.28 µM (inactive) | 14.8 µM (inactive) | 10.6 µM (inactive)
Oc1ccc(-c2c3ccccc3c(-c3ccc(OCCBr)cc3)c3ccccc23)cc1 | 27.4 µM (inactive) | 32.9 µM (inactive) | > 100 µM (inactive) | 31.1 µM (inactive) | 34.5 µM (inactive) | 35 µM (inactive) | 23.2 µM (inactive) | 30.1 µM (inactive) | 13.9 µM (inactive) | 24.2 µM (inactive) | 14.6 µM (inactive) | 21 µM (inactive) | 67.6 µM (inactive) | 37.2 µM (inactive) | 26.4 µM (inactive) | 47.5 µM (inactive) | > 100 µM (inactive) | 31.8 µM (inactive) | 19.7 µM (inactive) | 24.2 µM (inactive)
COC(=O)NN=C(c1ccc(Cl)cc1)c1ccc(Cl)cc1 | > 100 µM (inactive) | > 100 µM (inactive) | 80.7 µM (inactive) | > 100 µM (inactive) | 54.2 µM (inactive) | > 100 µM (inactive) | 17.9 µM (inactive) | 80.2 µM (inactive) | 93.8 µM (inactive) | 40.3 µM (inactive) | > 100 µM (inactive) | > 100 µM (inactive) | > 100 µM (inactive) | > 100 µM (inactive) | > 100 µM (inactive) | > 100 µM (inactive) | > 100 µM (inactive) | 94.2 µM (inactive) | > 100 µM (inactive) | > 100 µM (inactive)
O=C(CN(c1ccc(S(=O)(=O)O)cc1)c1ccc(S(=O)(=O)O)cc1)Nn1cnc2ccc(S(=O)(=O)N(c3ccc(S(=O)(=O)O)cc3)c3ccc(S(=O)(=O)O)cc3)cc2c1=O | > 100 µM (inactive) | > 100 µM (inactive) | > 100 µM (inactive) | > 100 µM (inactive) | > 100 µM (inactive) | > 100 µM (inactive) | > 100 µM (inactive) | > 100 µM (inactive) | > 100 µM (inactive) | > 100 µM (inactive) | > 100 µM (inactive) | > 100 µM (inactive) | > 100 µM (inactive) | > 100 µM (inactive) | > 100 µM (inactive) | > 100 µM (inactive) | > 100 µM (inactive) | > 100 µM (inactive) | > 100 µM (inactive) | > 100 µM (inactive)
CC(=O)O[C@H]1C(=O)[C@@]2(C)[C@H]([C@H](OC(=O)c3ccc(F)cc3)[C@]3(O)C[C@H](OC(=O)[C@H](O)[C@@H](NC(=O)c4ccccc4)c4ccccc4)C(C)=C1C3(C)C)[C@]1(OC(C)=O)CO[C@@H]1C[C@@H]2O | 0.0112 µM (active) | 2 µM (inactive) | 0.0395 µM (active) | 0.00592 µM (active) | 0.416 µM (active) | 0.0116 µM (active) | 0.202 µM (active) | 0.64 µM (active) | 0.0102 µM (active) | 6.58 µM (inactive) | 0.00557 µM (active) | 0.0559 µM (active) | 5.92 µM (inactive) | 0.00608 µM (active) | 0.0025 µM (active) | 0.00469 µM (active) | 0.0146 µM (active) | 0.0108 µM (active) | 0.0199 µM (active) | 0.0399 µM (active)
COc1cc(Nc2nc3ccccc3nc2C(C)C)cc(OC)c1OC | > 100 µM (inactive) | 42.7 µM (inactive) | > 100 µM (inactive) | 83.2 µM (inactive) | > 100 µM (inactive) | 81.7 µM (inactive) | > 100 µM (inactive) | > 100 µM (inactive) | > 100 µM (inactive) | > 100 µM (inactive) | > 100 µM (inactive) | > 100 µM (inactive) | > 100 µM (inactive) | > 100 µM (inactive) | > 100 µM (inactive) | > 100 µM (inactive) | > 100 µM (inactive) | > 100 µM (inactive) | > 100 µM (inactive) | > 100 µM (inactive)
COc1cc(C2c3cc4c(cc3OC3(OC)COC(=O)C23)OCO4)cc(OC)c1OC(C)=O (stereo not given) | 0.429 µM (active) | > 35.8 µM (inactive) | 2.52 µM (inactive) | 1.81 µM (inactive) | 19.3 µM (inactive) | 0.263 µM (active) | 3.27 µM (inactive) | 5 µM (inactive) | 0.374 µM (active) | > 57.8 µM (inactive) | 1.3 µM (inactive) | 1.66 µM (inactive) | 6.28 µM (inactive) | 0.785 µM (active) | 0.206 µM (active) | 1.23 µM (inactive) | 3.96 µM (inactive) | 2.53 µM (inactive) | 4.78 µM (inactive) | > 39.4 µM (inactive)
CC1(C)COC2=C(C1)C(=O)c1ccccc1C2=O | 1.55 µM (inactive) | 1.9 µM (inactive) | 1.64 µM (inactive) | 1.32 µM (inactive) | 1.7 µM (inactive) | 1.85 µM (inactive) | 2.1 µM (inactive) | 1.85 µM (inactive) | 1.54 µM (inactive) | 1.53 µM (inactive) | 0.75 µM (active) | 1.61 µM (inactive) | 1.04 µM (active) | 0.449 µM (active) | 0.182 µM (active) | 0.583 µM (active) | 1.5 µM (inactive) | 2.66 µM (inactive) | 1.09 µM (active) | 0.828 µM (active)
